pEC50, pKi: −log10 of the molar value. Converted amounts (≈) assume the structure as drawn.
Columns and labels:
[1] = Assay condition for measuring solubility; assay type: physicochemical; conditions: for solubility at 24 h: thermodynamic from solid, aqueous, sodium phosphate buffer pH 7.4, 24 h, 25° C.
Protocol: A 30 mM DMSO stock is prepared of the sample and then a 25 μL aliquot is added to a 96-well plate and genevac at 40° C. for 4 hours. To the genevac compound add 250 μL of sodium phosphate buffer (pH 7.4) and then mix at 1200 rpm for 24 h using an Eppendorf Thermomixer at 25° C. After mixing solution is transferred to a 96-well Whatman GF/B filter plate and then filtered under vacuum. The supernatant is then injected onto the LC/MS for analysis and quantitation is performed using a 1-point calibration for the compound of interest.

[2] = Metabolic stability assay in rat liver microsomes; assay type: in vitro ADME; conditions: pH 7.4, 37° C., read-out: rCLint
Protocol: (§1) A solution of 500 μl of 100 μM compound in DMSO is incubated with human or rat liver microsomes (843 μl of microsomes of 0.5618 mg/mL in 30 ml 0.1 M KH2PO4 buffer pH7.4) at 37° C. for 10 min in a 96-deep well plate. NADPH (46 μL) at a concentration of 8.33 mg/ml in 100 mM KH2PO4 buffer pH 7.4 is added to start the reaction. The reaction mixtures are transferred to a 384-well plate containing acetonitrile to quench the reaction at time 0, 10, 20, 30 minutes. The 384 well plate is centrifuged for 30 min at 9000 g, at 4° C., from which samples are analyzed by LC/MS (model: XDB Eclipse C18). Three references are analyzed by LC/MS as a positive control. Data are processed following a standard procedure. The metabolic stability of assayed compounds is expressed as μL/min/mg

[3] = Metabolic stability assay in human liver microsomes; assay type: in vitro ADME
Protocol: as §1

[4] = target: T1, Human CB1 receptor (Homo sapiens, UniProt P21554); assay: hCB1 receptor binding (3H-CP55,940 displacement); conditions: Ki=IC50/(1+[rad]/Kd)
T1 construct: purchased Receptor Biology
Protocol: Human CB1 receptor from Receptor Biology (hCB1) or human CB2 receptor from BioSignal (hCB2) membranes are thawed at 37° C., passed 3 times through a 25-gauge blunt-end needle, diluted in the cannabinoid binding buffer (50 mM Tris, 2.5 mM EDTA, 5 mM MgCl2, and 0.5 mg/mL BSA fatty acid free, pH 7.4) and aliquots containing the appropriate amount of protein are distributed in 96-well plates. The IC50 of the compounds of the invention at hCB1 and hCB2 are evaluated from 10-point dose-response curves done with ^3H-CP55,940 at 20000 to 25000 dpm per well (0.17-0.21 nM) in a final volume of 300 μl. The total and non-specific binding are determined in the absence and presence of 0.2 μM of HU210 respectively. The plates are vortexed and incubated for 60 minutes at room temperature, filtered through Unifilters GF/B (presoaked in 0.1% polyethyleneimine) with the Tomtec or Packard harvester using 3 mL of wash buffer (50 mM Tris, 5 mM MgCl2, 0.5 mg BSA pH 7.0). The filters are dried for 1 hour at 55° C. The radioactivity (cpm) is counted in a TopCount (Packard) after adding 65 μl/well of MS-20 scintillation liquid.
Based on the above assays, the dissociation constant (Ki) for a particular compound of the invention towards a particular receptor is determined using the following equation: Ki=IC50/(1+[rad]/Kd), […]

[5] = target: T1, Human CB1 receptor; assay: hCB1 GTPγS binding; assay type: biochemical
Protocol: Human CB1 receptor from Receptor Biology (hCB1) or human CB2 receptor membranes (BioSignal) are thawed at 37° C., passed 3 times through a 25-gauge blunt-end needle and diluted in the GTPγS binding buffer (50 mM Hepes, 20 mM NaOH, 100 mM NaCl, 1 mM EDTA, 5 mM MgCl2, pH 7.4, 0.1% BSA). The EC50 and Emax of the compounds of the invention are evaluated from 10-point dose-response curves done in 300 μl with the appropriate amount of membrane protein and 100000-130000 dpm of GTPg^35S per well (0.11-0.14 nM). The basal and maximal stimulated binding is determined in absence and presence of 1 μM (hCB2) or 10 μM (hCB1) Win 55,212-2 respectively. The membranes are pre-incubated for 5 minutes with 56.25 μM (hCB2) or 112.5 μM (hCB1) GDP prior to distribution in plates (15 μM (hCB2) or 30 μM (hCB1) GDP final). The plates are vortexed and incubated for 60 minutes at room temperature, filtered on Unifilters GF/B (presoaked in water) with the Tomtec or Packard harvester using 3 ml of wash buffer (50 mM Tris, 5 mM MgCl2, 50 mM NaCl, pH 7.0). The filters are dried for 1 hour at 55° C. The radioactivity (cpm) is counted in a TopCount (Packard) after adding 65 μl/well of MS-20 scintillation liquid. […]

[6] = pH 7.4, 37° C., read-out: hCLint

T1 sequence (P21554 whole entry): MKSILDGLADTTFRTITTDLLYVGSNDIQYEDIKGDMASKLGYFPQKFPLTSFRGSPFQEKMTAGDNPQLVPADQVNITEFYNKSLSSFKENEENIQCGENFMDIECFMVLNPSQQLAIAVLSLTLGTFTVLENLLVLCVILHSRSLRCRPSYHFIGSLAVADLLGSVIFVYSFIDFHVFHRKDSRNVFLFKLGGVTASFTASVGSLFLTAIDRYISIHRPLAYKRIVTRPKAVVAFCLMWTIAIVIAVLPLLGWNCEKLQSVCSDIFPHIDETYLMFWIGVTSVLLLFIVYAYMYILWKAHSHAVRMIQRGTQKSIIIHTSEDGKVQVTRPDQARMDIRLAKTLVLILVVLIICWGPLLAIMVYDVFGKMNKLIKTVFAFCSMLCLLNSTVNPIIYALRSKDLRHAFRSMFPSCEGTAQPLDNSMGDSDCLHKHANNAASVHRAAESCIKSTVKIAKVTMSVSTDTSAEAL

Row | SMILES | solubility at 24 h [1] | microsomal CLint at 1.6 µM [2] | microsomal CLint at 1.6 µM [3, 6] | also measured
1 | CCS(=O)(=O)Nc1ccc2c(c1)nc(C(C)(C)C)n2CC1CCC(F)CC1 (centres unmarked) | 353 µM (≈ 140 µg/mL) | 62.6 µL/min/mg | 5.72 µL/min/mg | 
2 | CC(F)(F)c1nc2cc(NS(=O)(=O)C3CC3)ccc2n1CC1CCC(F)(F)CC1 | 51.9 µM (≈ 22.5 µg/mL) | < 4 µL/min/mg | 5.27 µL/min/mg | 
3 | CCS(=O)(=O)Nc1ccc2c(c1)nc(C(C)(C)C)n2CC1CCC(F)CC1 (single isomer, unassigned) [Isomer B, N-{2-tert-Butyl-1-[(4-fluorocyclohexyl)methyl]-1H-benzimidazol-5-yl}ethanesulfonamide (isomers)] |  |  |  | Sol. pH 7.4 ([1]; listed as B): 381 μM; microsomal CLint at 1.6 µM ([3]; pH 7.4, read-out: hClint): 7.7 µL/min/mg; pKi [4]: 7.83; pEC50 [5]: 8.31; Emax ([5]; maximal stimulation with 10 μM Win 55,212-2): 103%
4 | CC(C)(C)c1nc2cc(NS(=O)(=O)C3CC3)ccc2n1CC1CCC(F)CC1 (centres unmarked) | 233 µM (≈ 95 µg/mL) |  | < 4 µL/min/mg | 
5 | CCS(=O)(=O)Nc1ccc2c(c1)nc(C(C)(C)C)n2CC1CCC(F)CC1 (single isomer, unassigned) [Isomer A, N-{2-tert-Butyl-1-[(4-fluorocyclohexyl)methyl]-1H-benzimidazol-5-yl}ethanesulfonamide (isomers)] |  |  |  | Sol. pH 7.4 ([1]; listed as A): 64 μM; pKi [4]: 6.83
6 | CC(F)(F)c1nc2cc(NS(=O)(=O)C(C)(C)C)ccc2n1CC1CCC(F)(F)CC1 | 0.51 µM (≈ 0.229 µg/mL) | 6.87 µL/min/mg | < 4 µL/min/mg | 
7 | CC(C)(C)c1nc2cc(NS(=O)(=O)C3CC3)ccc2n1CC1CCC(F)(F)CC1 | 5.93 µM (≈ 2.52 µg/mL) | 10.2 µL/min/mg | 7.77 µL/min/mg | 
8 | CC(C)(C)c1nc2cc(NS(=O)(=O)C(C)(C)C)ccc2n1CC1CCC(F)CC1 (centres unmarked) | 154 µM (≈ 65.3 µg/mL) |  | 11.5 µL/min/mg | 
9 | CCS(=O)(=O)Nc1ccc2c(c1)nc(C(C)(C)C)n2CC1CCC(F)(F)CC1 | 7.36 µM (≈ 3.04 µg/mL) | 11.7 µL/min/mg | 5.76 µL/min/mg | 
10 | CC(C)(C)c1nc2cc(NS(=O)(=O)C(C)(C)C)ccc2n1CC1CCC(F)(F)CC1 | 0.61 µM (≈ 0.269 µg/mL) | 15.4 µL/min/mg | 8.03 µL/min/mg | 
11 | CC(C)(C)c1nc2cc(NS(C)(=O)=O)ccc2n1CC1CCC(F)(F)CC1 | 4.3 µM (≈ 1.72 µg/mL) | 23.4 µL/min/mg | 7.41 µL/min/mg | 
12 | CCCS(=O)(=O)Nc1ccc2c(c1)nc(C(C)(C)C)n2CC1CCC(F)(F)CC1 | 3.79 µM (≈ 1.62 µg/mL) | 8.04 µL/min/mg | 10.7 µL/min/mg | 

Reference: US7550495B2 (priority 2004, dated 2009)
